Tests used:
[1] = Rat arthritis model induced by type II collagen (CIA); format: in vivo; conditions: 4 mg/kg oral once a day, CIA rats
Procedure: Example 9 Therapeutic Effect of the Compound of the Present Invention on a Rat Arthritis Model Induced by Type II Collagen
An appropriate amount of bovine type II collagen (CII, Chondrex (Redmond, WA, USA), Cat #20021) was weighed and dissolved in 0.1 mole of acetic acid (SPGC Sinopharm Chemical Reagent Co., Ltd (Shanghai, P.R.China), Cat #: 10000218.), which was formulated into a solution with a concentration of 6 mg/mL, stirred at 4° C. overnight, and added with an equal volume of Freund's incomplete adjuvant (Sigma-Aldrich. (St. Louis, MO, USA), Cat #: SLBW0366.), fully emulsified to prepare an emulsion with a CII concentration of 3 mg/mL. […]
The paw volume was measured on day 8 after immunization, and the left and right hind paw volumes (V) were measured every day after the paw volume increase was detected. […]
The area under the curve (AUC) of the average paw volume change is the area under the curve of the arthrosis score change calculated by the trapezoid method, and the calculation formula is: AUCpaw volume=½×(APSd1+APSd2)λ(d2−d1)+½×(APSd2+APSd3)×(d3-d2)+. . . +½×(APSdn+APSd(n-1))×(dn−dn-1)
ED50 is calculated by XLfit software according to the AUC inhibition ratio of the area under the curve of the average paw volume change. […]

[2] = Study on in vivo pharmacokinetics in mice; set-up: species or system mouse; conditions: mice, intragastric, 10 mg/kg
Text: Example 6 Study on In Vivo Pharmacokinetics in Mice
Solutol HS15 was purchased from BASF, Germany, ethanol (anhydrous) was purchased from Nanjing Chemical Reagent Co., Ltd., physiological saline was purchased from Huayu (Wuxi) Pharmaceutical Co., Ltd., dimethyl sulfoxide (DMSO) and sodium carboxymethyl cellulose 800-1200 (CMC-Na) were purchased from Sinopharm Chemical Reagent Co., Ltd.
Preparation of ethanol/Solutol mixed solution (1:1, v/v): taking an appropriate amount of Solutol HS15 in a centrifuge tube and placing in a 37° C. water bath until dissolved, placing on the bench top to room temperature, taking 1 mL of Solutol in a centrifuge tube containing 1 mL of ethanol and mixing well to obtain the mixed solution.
Taking an appropriate amount of stock solution and placing in a blank centrifuge tube, adding an appropriate amount of ethanol/Solutol mixed solution prepared in advance, vortexing, then adding an appropriate amount of physiological saline, and mixing well until a transparent liquid.
3. Administration to Animals and Sample Collection:
Male ICR mice were purchased from Shanghai Lingchang Biotechnology Co., Ltd. 18 mice were randomly divided into intravenous administration group and intragastric administration group. The mice were fasted overnight before administration. The mice were withheld food but allowed to access water freely within 4 hours after administration, and allowed to freely access food and water after 4 hours. After anesthesia with isoflurane, blood was collected from the retroorbital venous plexus and placing in an centrifuge tube containing anticoagulant, and the centrifuge tube was stored in an box containing wet ice until the plasma was centrifuged.
The plasma samples were pre-treated and then analyzed by liquid chromatography-tandem mass spectrometry (LC-MS/MS), the instrument model was API5500. The analytical chromatographic column was Waters XSELECT HSS T3 C18 column (50×2.1 mm, 2.5 μm). In the mobile phases, deionized water containing 0.1% formic acid and 0.1% acetonitrile was used as the aqueous phase and acetonitrile containing 0.1% formic acid was used as the organic phase. The concentrations of the compound in the samples were determined as follows. Firstly, a standard curve was established, and the peak area ratios of the compound 19 to the internal standard in the standard curve were used as indexes. The theoretical concentrations of compound 19 and the peak area ratios of compound 19 to the internal standard were fitted with a quadratic regression equation to obtain the regression equation. The sample concentrations were calculated by measuring the peak area ratio of the compound of the test sample to the internal standard according to the standard curve.

[3] = Stability test in liver microsomes (mouse); format: in vitro ADME; conditions: mouse liver microsomes, 1 μM compound, 30 min
Text: (§1) Example 5 Stability Test in Liver Microsomes
(§2) Both male CD-1 mouse pooled liver microsomes and male SD rat pooled liver microsomes were purchased from BioreclamationIVT Corporation, USA.
(§3) Phenacetin, glucose-6-phosphate dehydrogenase (G-6-PDH) and nicotinamide adenine dinucleotide phosphate (NADP) were all purchased from Sigma-Aldrich Corporation, USA. Glucose-6-phosphate (G-6-P) was purchased from Shanghai Eybridge Chemical Technology Co., Ltd.
(§4) Ten mM test compound stock solution: a certain amount of test compound was weighed, and dissolved with an appropriate volume of DMSO to prepare a stock solution with a concentration of 10 mM for use.
(§5) Reaction stopping solution: an appropriate amount of internal standard compound phenacetin was dissolved in acetonitrile to prepare a reaction stopping solution with a concentration of 1000 ng/mL for use at room temperature.
(§6) The test compound stock solution was diluted with an organic solvent (usually a mixture of acetonitrile, methanol and water with various ratios, depending on the solubility of the compound, if necessary, 1 N hydrochloric acid or 1 N sodium hydroxide would be added to facilitate solubilization) to the 0.1 mM (the final concentration of the compound in the reaction system was 1 μM) and the concentration percentage of the organic solvents in the incubation system no more than 1% (wherein the percentage of DMSO was required to be no more than 0.1%). An appropriate amount of 100 mM NADP, 500 mM G-6-P and 100 Unit/mL G-6-PDH were mixed and diluted with ultrapure water (the final system contains 1 mM NADP, 5 mM G-6-P and 1 Unit/mL G-6-PDH), pre-incubated in a 37° C. water bath for 10 minutes and then placed on ice for use as a NADPH regeneration solution. 20 mg/mL liver microsomes solution and 200 mM phosphate buffer was mixed, and diluted with ultrapure water to give a liver microsomes solution containing 2.5 mg/mL liver microsomes (the final concentration of the reaction system is 0.5 mg/mL) and 50 mM phosphate buffer. The diluted liver microsomes solution was mixed with 0.1 mM compound solution, a mixture of 100 mM EDTA, 300 mM MgCl2 solution, 200 mM phosphate buffer (the final system was 3 mM MgCl2, 1 mM EDTA and 50 mM phosphate buffer) and water in an appropriate volume was added. Finally, the NADPH regeneration solution was added, then the reaction solution was placed in a 37° C. water bath to start the reaction (the reaction time was 30 minutes), and the reaction was stopped by adding the ice-cold acetonitrile reaction stopping solution containing the internal standard. The 0-minute sample was not incubated in a 37° C. water bath, and its difference from the 30-minute sample further lies in that the ice-cold acetonitrile reaction stopping solution containing the internal standard was added first, and then the NADPH regeneration solution was added. The sample added with the reaction stopping internal standard solution was vortexed and mixed well, and then centrifuged at 4400 rpm for 10 minutes. The supernatant was taken and diluted ten times with 50% methanol for LC-MS/MS analysis.
(§7) LC-MS/MS was used to determine the concentration of the compound in the sample. The percentage of the remaining compound after 30 minutes of incubation comparing with that in the 0-minute sample was calculated using the peak area ratio of the compound to the internal standard as an indicator, to evaluate the metabolic stability of the compound.
(§8) Instrument: API4500, API4000 or LTQ Mass Spectrometer; the liquid phase is UHPLC system (Shimadzu LC-30 AD, model Nexra X2) including liquid delivery unit, column thermostat, detector and autosampler; or Agilent 1200 Binary Pump series HPLC and CTC Autosampler.
(§9) Chromatographic column: Waters XSELECT Hss T3 C18 (2.5 μm, 2.1×50 mm) or […] (5 μm, 2.0×50 mm)
(§10) Mobile phase: • A: water with 0.1% FA (formic acid) (with or without 0.1% ACN (acetonitrile)) • B: acetonitrile with 0.1% FA (formic acid).

[4] = Stability test in liver microsomes (rat); format: in vitro ADME; conditions: rat liver microsomes, 1 μM compound, 30 min
Text: as §1, §2, §3, §4, §5, §6, §7, §8, §9, §10

T1/2 [2]: 1.5 h
C8 h ([2]; plasma at 8 h): 143 ng/mL
MLM, percentage of remaining compound after 30 minutes of incubation [3]: 76.3%
RLM, percentage of remaining compound after 30 minutes of incubation [4]: 81.0%
SMILES: C[C@H]1CN(C2COC2)CCN1c1ccc(Nc2cc(-c3ccnc(N4CCn5c(cc6c5CC(C)(C)C6)C4=O)c3CO)cn(C)c2=O)nc1 [GDC-0853, fenebrutinib, reference compound]
paw volume compared with vehicle control group [1]: significantly reduced
